Measurements from patent US6545041B2, “Tumor necrosis factor alpha (TNF-α) inhibiting pharmaceuticals” (Yessum Research Development Co. of the Hebrew University of …, priority 1995, dated 2003).

How the values were obtained:
[1] = in vivo; cited from earlier work
TNF = test: Serum TNF activity (bioassay) and levels (ELISA) in LPS treated mice; assay type: in vivo, mice (C57BL/6); conditions: 100 μg LPS ip with 200 μg/mouse compound, 90 min
Protocol: An early response to LPS administration is the elevation of serum levels of TNF, which peaks at 1.5-2 hr after LPS administration. Mice treated with LPS serve as a model for the effect of drugs on reducing TNF levels under these conditions.
Serum levels of TNF peak within 1.5 hr following LPS administration, and at this time point, we assessed both TNF activity and levels in the serum.
Mice (C57BL/6) were injected ip with 100 μg LPS, concomitantly with HU-211, HU-210, or HU-245 (200 μg/mouse), and 90 min later they were bled, the sera separated and TNF was assayed for its activity (bioassay) and levels (using ELISA kit).

Compound | cannabimimetic activity relative to Δ-1-tetrahydrocannabinol [1] | TNF levels in serum (ELISA) (TNF)
CCCCCCC(C)(C)c1cc(O)c2c(c1)OC(C)(C)C1CC=C(CO)CC21 (centres unmarked) [HU-210, 7-hydroxy-Δ^6-tetrahydrocannabinol 1,1-dimethylheptyl homologue, reference compound] | ~100 times | –
CCCCCCC(C)(C)c1cc(O)c2c(c1)OC(C)(C)C1CC=C(C(=O)O)CC21 (centres unmarked) [HU-245] | – | significantly reduced
